# Where two headings read alike, the source gives them in different places.
# What was measured:
# [1] = biological target: T1, AtGlcAK (Arabidopsis thaliana, UniProt Q93ZC9, I297M); assay: AtGlcAK substrate specificity CE assay; type: biochemical; conditions: High enzyme Conc. (2.1 μg in 20 μL, 60 min, 37° C.)
# T1 construct: made in house; host or cells: E. coli BL21 (DE3)
# Protocol: Substrate specificity assays. […] The reactions were quenched and assayed with the same method as those for pH profile. All reactions were performed in duplicates.
# [2] = biological target: T2, SpGalK (Streptococcus pneumoniae serotype 4, UniProt Q97NZ6); assay: Kinase reaction monitored by CE (ATP to ADP), SpGalK; type: biochemical, Streptococcus pneumoniae TIGR4; conditions: monosaccharide 15 mM, ATP 18 mM, 37° C.
# T2 construct: made in house
# Protocol: (§1) Capillary electrophoresis (CE) and thin-layer chromatograph (TLC) assays for kinase reactions. […] These conditions were similar to those used for preparative-scale synthesis. After 1 hr, 4 hr, and 24 hr, an aliquot of 8 μL was withdrawn from each reaction mixture, boiled in a water bath for 5 min and stored at −20° C. until being analyzed by capillary electrophoresis (CE) and TLC. For TLC analysis, 0.5 μL of each sample was directly spotted on TLC plates, developed using suitable developing solvents, and stained with anisaldehyde sugar stain. For CE analysis, 1.5 μL of each sample was diluted into 30 μL and subjected to CE analysis as described above for pH profile studies.
# [3] = biological target: T3, EcGalK (Escherichia coli, UniProt P0A6T3); assay: Kinase reaction monitored by CE (ATP to ADP), EcGalK; type: biochemical; conditions: monosaccharide 15 mM, ATP 18 mM, 37° C.
# T3 construct: made in house
# Protocol: as §1
# [4] = biological target: NahK_ATCC15697 (Bifidobacterium longum, UniProt B7GN78); assay: Substrate specificity CE assay, NahK_ATCC15697; type: biochemical, Bifidobacterium infantis
# Protocol: (§2) Substrates specificity assays. GlcNAc, GalNAc, and their derivatives (1 mM) were used as substrates in the presence of ATP (1 mM) and MgCl2 (5 mM) in a Tris-HCl buffer (pH 8.0, 200 mM) to analyze the substrate specificity of NahKs. Two concentrations (0.75 μM or 15 μM) of each NahK were used and the reactions were allowed to proceed for 10 min (for 0.75 μM NahK) or 30 min (for 15 μM NahK) at 37° C. […] All other conditions were the same as for GlcNAc, GalNAc, and their derivatives.
# (§3) Capillary electrophoresis (CE) assays. Based on the detection of ADP and ATP in the reaction mixture by a UV detector, a capillary electrophoresis-based method was developed to directly measure the formation of ADP and N-acetylhexosamine-1-phosphate from ATP and N-acetylhexosamine for characterizing the activities of NahKs.
# [5] = tested on: NahK; assay: Kinase reaction monitored by CE (ATP to ADP), NahK; type: biochemical, Bifidobacterium infantis; conditions: monosaccharide 15 mM, ATP 18 mM, 37° C.
# Protocol: Capillary electrophoresis (CE) and thin-layer chromatograph (TLC) assays for kinase reactions. Kinase reactions were carried out at 37° C. in a total volume of 30 μL in Tris-HCl buffer (100 mM, pH 8.0) containing monosaccharide (15 mM), ATP (18 mM, 1.2 eq.), MgCl2 (10 mM), and a kinase (6 μg). These conditions were similar to those used for preparative-scale synthesis. After 1 hr, 4 hr, and 24 hr, an aliquot of 8 μL was withdrawn from each reaction mixture, boiled in a water bath for 5 min and stored at −20° C. until being analyzed by capillary electrophoresis (CE) and TLC. For TLC analysis, 0.5 μL of each sample was directly spotted on TLC plates, developed using suitable developing solvents, and stained with anisaldehyde sugar stain. For CE analysis, 1.5 μL of each sample was diluted into 30 μL and subjected to CE analysis as described above for pH profile studies.
# General methods for compound purification and characterization. Chemicals were purchased and used without further purification. ^1H NMR and ^13C NMR spectra were recorded on a Varian Mercury 600 NMR spectrometer. High resolution electrospray ionization (ESI) mass spectra were obtained in negative mode using Thermo Electron LTQ-Orbitrap mass spectrometer. Silica gel 60 Å (Sorbent Technologies) was used for flash column chromatography. Thin-layer chromatography (TLC) was performed on silica gel plates 60 GF254 (Sorbent Technologies) using anisaldehyde sugar stain for detection. Gel filtration chromatography was performed with a column (100 cm×2.5 cm) packed with BioGel P-2 Fine resins (Bio-Rad). GlcN3 (T6-9) (Lau K, Thon, V, Yu H, Ding L, Chen Y, Muthana M M, Wong D, Huang R, and Chen X. Chem. Commun. 2010, 46, 6066-6068), ManF (T6-11) (Burkart M D, Zhang Z, Hung S-C, and Wong C-H. J. Am. Chem. Soc. 1997, 119, 11743-11746; Cao H, Li Y, Lau K, Muthana S, Yu H, Cheng J, Chokhawala H A, Sugiarto G, Zhang L, and Chen X. Org. Biomol. Chem. 2009, 7, 5137-5145), GalN3 (T6-4) and ManN3 (T6-14) (Yu H, Yu H, Karpel R, cand Chen X. Bioorg. Med. Chem. 2004, 12, 6427-6435) were previously synthesized using reported methods. NahK_ATCC15697, EcGalK, SpGalK, and PmPpA were overexpressed as described previously.
# [6] = biological target: NahK_ATCC55813 (Bifidobacterium longum subsp. longum, UniProt E8MF12, D7V/R348H); type: biochemical; design: made in house; host or cells: E. coli BL21(DE3)
# Protocol: as §2, §3
# [7] = tested on: CC(=O)N[C@H]1C(O)O[C@H](CO)[C@@H](O)[C@@H]1O; assay: purified protein, by the assay type; conditions: other: substrates ATP and GlcNAc, one varied, other fixed at 1 mM, 37° C., 10 min, pH 7.5
# Protocol: (§6) Kinetics by CE assays. Reactions were carried out in duplicate at 37° C. for 10 min in a total volume of 20 μL in Tris-HCl buffer (200 mM, pH 7.5) containing MgCl2 (1 mM), ATP, GlcNAc or GalNAc, and NahK (0.25 μM when GlcNAc and ATP were used as substrates, 0.5 μM when GalNAc and ATP were used as substrates). Apparent kinetic parameters were obtained by varying the ATP concentration from 0.1-5.0 mM (0.1 mM, 0.2 mM, 0.4 mM, 1 mM, 2 mM, and 5 mM) at a fixed concentration of GlcNAc or GalNAc (1 mM), or varying the concentration of GlcNAc or GalNAc (0.1 mM, 0.2 mM, 0.4 mM, 1 mM, 2 mM, and 5 mM) at a fixed concentration of ATP (1 mM) and fitting the data to the Michaelis-Menten equation using Grafit 5.0.
# [8] = tested on: CC(=O)N[C@H]1C(O)O[C@H](CO)[C@H](O)[C@@H]1O; assay: purified protein, by the assay type; conditions: other: substrates ATP and GalNAc, one varied, other fixed at 1 mM, 37° C., 10 min, pH 7.5
# Protocol: as §6
# [9] = tested on: Nc1ncnc2c1ncn2[C@@H]1O[C@H](COP(=O)(O)OP(=O)(O)OP(=O)(O)O)[C@@H](O)[C@H]1O; assay: purified protein, by the assay type; conditions: one varied, other fixed at 1 mM, 37° C., 10 min, pH 7.5
# Protocol: as §6
# [10] = tested on: PmHS2; assay: Small-scale PmHS2 donor substrate test by TLC; type: biochemical, Pasteurella multocida; conditions: GlcAβ2AAMe 10 mM, donor 15 mM, MgCl2 10 mM, PmHS2 0.5 mg/mL, pH 7.5, 37° C., 12 hr
# Protocol: Prior to applying the one-pot three-enzyme system shown in FIG. 16 to the preparative-scale synthesis of the disaccharides, UDP-GlcNAc and derivatives F17-1-F17-12 were tested as donor substrates for PmHS2 in small-scale reaction containing Tris-HCl buffer (100 mM, pH 7.5), GlcAβ2AAMe (10 mM), UDP-GlcNAc or a derivative (15 mM), MgCl2 (10 mM), and PmHS2 (0.5 mg/mL). The reactions were carried out at 37° C. for 12 hr and analyzed by thin layer chromatography (TLC).
# [11] = tested on: PmHS2; assay: Donor substrate specificity of PmHS2 by HPLC (Example 1); type: biochemical, Pasteurella multocida; conditions: acceptor GlcAα2AA 1 mM, UDP-sugar 1 mM, MnCl2 10 mM, pH 6.5, 37° C.
# Protocol: pH profile by HPLC. Typical enzymatic assays were performed in a 10 μl reaction mixture containing a buffer (100 mM) with a pH in the range of 4.0-10.0, UDP-GlcNAc (1 mM), GlcAβ2AA (1 mM), MnCl2 (10 mM) and KfiA (9.0 μg) or PmHS2 (0.25 μg). Buffers used were: Na2HPO4/citric acid, pH 4.0; MES, pH 5.0-6.5; TrisHCl, pH 7.0-9.0; and CAPS, pH 10.0. Reactions were allowed to proceed for 30 min at 37° C. and were quenched by adding ice-cold 10% (v/v) acetonitrile to make 100-fold dilutions. The samples were then kept on ice until an aliquot of 8 μl was injected and analyzed by a Shimadzu LC-2010A system equipped with a membrane on-line degasser, a temperature control unit and a fluorescence detector. A reverse phase Premier C18 column (250 9 4.6 mm I.D., 5 μm particle size, Shimadzu) protected with a C18 guard column cartridge was used. The mobile phase was 25% (v/v) acetonitrile. The fluorescent compounds GlcAβ2AA and GlcNAcα1-4GlcAβ2AA were detected by excitation at 315 nm and emission at 400 nm.
# Substrate specificity of KfiA and PmHS2. All reactions were carried out in duplicate at 37° C. in MES (100 mM, pH 6.5) containing an UDP-GlcNAc or its derivatives (1 mM), […] (1 mM), MnCl2 (10 mM) and KfiA ([…] PmHS2 (2.5×10^−2 μg μl^−1). At 30 min, 4 h or 16 h, aliquots of reaction mixture were withdrawn and were quenched by adding ice-cold 10% (v/v) acetonitrile to make 100-fold dilutions. The assays were analyzed by HPLC.
# [12] = tested on: T4, MBP-KfiA-His6 (Escherichia coli); assay: GlcNAcT donor substrate specificity of MBP-KfiA-His6 (Example 12); type: biochemical, E. coli; conditions: acceptor GlcAβ2AA 1 mM, UDP-sugar 1 mM, MnCl2 10 mM, KfiA 2.8 μg μl^−1, 24 h, 37° C.
# T4 construct: made in house; host or cells: E. coli BL21(DE3) co-expressing chaperone plasmid pGro7
# Protocol: (§4) PmHS2, KfiA, and related fusion proteins were expressed, purified, and characterized as described in Example 1. Reactions with UDP-sugars were carried out in duplicate at 37° C. in MES (100 mM, pH 6.5) containing UDP-GlcNAc or one of its derivatives (1 mM), GlcAβ2AA (1 mM), MnCl2 (10 mM) and KfiA (2.8 μg μl^−1) or PmHS2 (1.1 μg μl^−1) for 24 h. The reaction mixtures were stopped by adding ice-cold 10% (v/v) acetonitrile to make 100-fold dilutions and the mixtures were analyzed by HPLC as described for the pH profile.
# (§5) Substrate specificity of the GlcNAcT activities of MBP-KfiA-his6 and his6-PmHS2. […] The reactions were easily analyzed by high performance liquid chromatography (HPLC) equipped with a fluorescence detector using an excitation wavelength of 315 nm and an emission wavelength of 400 nm to determine the ratio of the fluorescent disaccharide product formed and the fluorescent GlcAβ2AA acceptor.
# [13] = tested on: His6-PmHS2; assay: GlcNAcT donor substrate specificity of His6-PmHS2 (Example 12); type: biochemical, Pasteurella multocida; conditions: acceptor GlcAβ2AA 1 mM, UDP-sugar 1 mM, MnCl2 10 mM, PmHS2 1.1 μg μl^−1, 24 h, 37° C.
# Protocol: as §4, §5
# [14] = Glc, Gal, Man, ManNAc and derivatives, enzyme 15, 37° C. for 30 min (Table 3), listed as drawing 47
# [15] = other: substrates ATP and GalNAc
# [16] = other: substrates ATP and GlcNAc
# [17] = 0.75 μM enzyme, 10 min at 37° C., substrate 1 mM, ATP 1 mM
compound,measurement,setting,value
"O=C[C@H](O)[C@@H](O)[C@H](O)CO [Xyl, xylose]",Percentage conversion of ATP,[1],<5%
"OCC1OC(O)CC(O)[C@H]1O (some centres unmarked) [T6-2 2-deoxyGal, 2-deoxyGal]",ATP Conversion,[2]; 1 hr,80.3%
same,ATP Conversion,[2]; 4 hr,89.5%
same,ATP Conversion,[3]; 1 hr,78.5%
same,ATP Conversion,[3]; 4 hr,87.6%
"OCC1OC(O)C(O)[C@@H](O)[C@@H]1O (some centres unmarked) [Glc, glucose]",Percentage conversion of ATP,[1],<5%
same,ATP Conversion,[2]; 1 hr,6.9%
same,ATP Conversion,[2]; 4 hr,13.8%
same,ATP Conversion,[2]; 24 hr,75.5%
same,Percentage Conversion,[4]; [14],9.1 ± 0.1%
same,ATP Conversion,[5]; 4 hr,18.6%
same,ATP Conversion,[5]; 24 hr,82.2%
same,ATP Conversion,[3]; 1 hr,8.2%
same,ATP Conversion,[3]; 4 hr,13.0%
same,ATP Conversion,[3]; 24 hr,66.4%
same,Percentage Conversion,[6]; [14],4.7 ± 0.1%
NahK_ATCC55813 (Bifidobacterium longum subsp. longum JCM 1217; D7V/R348H),Km,[7],60 ± 10 µM
same,kcat,[7],1.1 ± 0.1 s⁻¹
same,kcat/Km,[7],18300 M⁻¹ s⁻¹
same,Km,[8],80 ± 30 µM
same,kcat,[8],0.57 ± 0.04 s⁻¹
same,kcat/Km,[8],7100 M⁻¹ s⁻¹
NahK_ATCC15697 (Bifidobacterium longum subsp. infantis ATCC 15697 = JCM 1222 = DSM 20088),Km,[9]; [15],80 ± 30 µM
same,kcat,[9]; [15],0.38 ± 0.02 s⁻¹
same,kcat/Km,[9]; [15],4800 M⁻¹ s⁻¹
same,Km,[9]; [16],100 ± 30 µM
same,kcat,[9]; [16],1.1 ± 0.1 s⁻¹
same,kcat/Km,[9]; [16],11000 M⁻¹ s⁻¹
same,Km,[7],60 ± 10 µM
same,kcat,[7],0.95 ± 0.01 s⁻¹
same,kcat/Km,[7],15800 M⁻¹ s⁻¹
same,Km,[8],90 ± 50 µM
same,kcat,[8],0.46 ± 0.07 s⁻¹
same,kcat/Km,[8],5100 M⁻¹ s⁻¹
"CC(=O)N[C@H]1[C@@H](OP(=O)(O)OP(=O)(O)OC[C@H]2O[C@@H](n3ccc(=O)[nH]c3=O)[C@H](O)[C@@H]2O)O[C@H](CN=[N+]=[N-])[C@@H](O)[C@@H]1O [Compound F17-8, Uridine 5′-diphospho-2-acetamido-6-azido-2,6-dideoxy-α-D-glucopyranoside]",donor substrate for PmHS2,[10],tolerable donor substrates
same,donor substrate for PmHS2,[11],is a substrate for PmHS2
same,donor substrate for MBP-KfiA-His6,[12],can be used by MBP-KfiA-His6
same,donor substrate for the α1-4GlcNAcT activity of His6-PmHS2,[13],suitable donor substrates for His6-PmHS2
"N[C@H]1C(O)O[C@H](CO)[C@H](O)[C@@H]1O (some centres unmarked) [T6-3 GalNH2, galactosamine]",ATP Conversion,[3]; 1 hr,90.2%
"CC(=O)NC1C(O)OC(CO)[C@H](O)[C@@H]1O (some centres unmarked) [GalNAc, N-acetylgalactosamine]",ATP Conversion,[2]; 1 hr,11.8%
same,ATP Conversion,[2]; 4 hr,24.7%
same,ATP Conversion,[2]; 24 hr,69.5%
same,Percentage Conversion,[4]; [17],12.5 ± 0.1%
same,Percentage Conversion,[6]; [17],19.9 ± 0.1%

# — patent US10160986B2, “Chemoenzymatic synthesis of heparin and heparan sulfate analogs” (The Regents of the University of California, priority 2011, dated 2018)
